Laboratory results reported in PubChem BioAssay AID179 (DTP/NCI, 2004).
Activity calls are given as the source filed them.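 How the source made its calls: active means compounds giving half or more protection of infected cells from virus-caused growth loss, again on retest; inactive means the rest.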

System: CEM cells HIV-1 protection, formazan growth assay
Experiment: NCI AIDS Antiviral Assay
Settings: for IC50: measured here: growth of uninfected CEM cells
How it was run: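 CEM (human) cells, HIV-1 infected vs uninfected, 5-point dosing, formazan growth read-out. Retest threshold 50% protection.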

**Q.** `NC(N)=NS(=O)(=O)c1ccc(NCCc2c3ccccc3nc3ccccc23)cc1` was tested. Which EC50 did it give?
**A.** Its EC50 is > 200 µM.

**Q.** And the IC50?
**A.** Its IC50 is 66.1 µM.

**Q.** What does the source list for `CCCNC1=C(C(=O)OCC)C(=O)CO1`?
**A.** EC50: > 33.9 µM; IC50: > 33.9 µM

**Q.** For `Cc1ccc(S(=O)(=O)Sc2nnnn2-c2ccccc2)cc1`, which EC50 is on record?
**A.** The EC50 was > 15.8 µM.

**Q.** And the IC50?
**A.** Its IC50 is > 15.8 µM.

**Q.** What does the source list for `O=C1NC(N2CCCC(CO)C2)=N/C1=C\c1ccccc1` (stereo not drawn)?
**A.** EC50: > 200 µM; IC50: > 200 µM

**Q.** How did the outcome turn out when `C/C(N=NS(=O)(=O)c1ccccc1)=C1\C=CC=CN1O` was run?
**A.** The outcome was “inactive”.

**Q.** With `COc1ccc([N+](=O)[O-])cc1NC(=O)c1ccc2c(c1)C(=O)OC2=O` as the compound, how does the EC50 read?
**A.** The EC50 was 29.5 µM.

**Q.** What about the IC50 of the same compound?
**A.** The IC50 was 64.6 µM.

**Q.** For `COc1cc(C(=O)NO)ccc1O`, which EC50 is on record?
**A.** The EC50 was > 8510 µM.

**Q.** And the IC50?
**A.** The IC50 was 447 µM.

**Q.** Which results are given for `COC(=O)NC1(NC(=O)OC)NC(=O)c2ccccc2N1`?
**A.** EC50: > 200 µM; IC50: > 200 µM

**Q.** With `COC(=O)c1cc(C(=C2CC2)c2cc(Br)c(OC)c(C(=O)OC)c2)cc(Br)c1OC` as the compound, how does the EC50 read?
**A.** The EC50 was > 200 µM.

**Q.** What about the IC50 of the same compound?
**A.** Its IC50 is 14.1 µM.

**Q.** Which results are given for `C/C(CCn1[nH]c(=O)ccc1=O)=N\N=C(N)N`?
**A.** EC50: > 4.37 µM; IC50: > 4.37 µM

**Q.** How did the EC50 turn out when `O=C1C2=Nc3ccccc3C(O)(C(=O)O)N2c2ccccc21` (stereo not drawn) was run?
**A.** The EC50 was > 200 µM.

**Q.** And the IC50?
**A.** Its IC50 is 16.6 µM.

**Q.** With `Cc1ccc(C=C(C(=O)O)C(=O)O)o1` as the compound, how does the EC50 read?
**A.** The EC50 was 145 µM.

**Q.** What about the IC50 of the same compound?
**A.** Its IC50 is > 200 µM.

**Q.** Which results are given for `O=C(O)C(NCc1ccccc1)C(NCc1ccccc1)C(=O)O` (stereo not drawn)?
**A.** EC50: > 200 µM; IC50: > 200 µM

**Q.** For `CC(=O)O[C@H]1CC[C@@]2(C)C(=CC[C@@H]3C2CC[C@@]2(C)C3CC[C@@H]2c2nc(C)cs2)C1` (stereo partly drawn), which EC50 is on record?
**A.** Its EC50 is > 60.3 µM.

**Q.** What about the IC50 of the same compound?
**A.** Its IC50 is > 60.3 µM.

**Q.** `CCOC(=O)C1C(C(C)C)C2(C#N)C(=N)OC1(C)C2(C#N)C#N` (stereo not drawn) was tested. Which EC50 did it give?
**A.** Its EC50 is > 200 µM.

**Q.** And the IC50?
**A.** The IC50 was 49 µM.

**Q.** For `O=C1NC(N2CCOCC2)=N/C1=C\c1ccc(Cl)cc1`, which EC50 is on record?
**A.** Its EC50 is > 200 µM.

**Q.** What about the IC50 of the same compound?
**A.** Its IC50 is > 200 µM.

**Q.** For `COC(=O)c1cc(C)ccc1/C=C1\Cc2c(C)cc(C)cc2C1=O`, which outcome is on record?
**A.** The outcome was “inactive”.

**Q.** Which EC50 does the source give for `OCCN1OCCCC1c1ccccc1` (stereo not drawn) here?
**A.** Its EC50 is > 1200 µM.

**Q.** And the IC50?
**A.** The IC50 was > 1200 µM.

**Q.** For `COc1cc2c(c([N+](=O)[O-])c1)NC(=O)C(C)S2` (stereo not drawn), which EC50 is on record?
**A.** Its EC50 is > 200 µM.

**Q.** What about the IC50 of the same compound?
**A.** The IC50 was 49 µM.

**Q.** With `CC1CCCc2c1n[nH]c2CC1CC(=O)NC(=O)C1` (stereo not drawn) as the compound, how does the EC50 read?
**A.** Its EC50 is > 200 µM.

**Q.** What about the IC50 of the same compound?
**A.** Its IC50 is > 200 µM.

**Q.** `COC1(OC)CCCCC2c3cccc(OC(C)=O)c3C21OC(C)=O` (stereo not drawn) was tested. Which EC50 did it give?
**A.** The EC50 was 72.4 µM.

**Q.** And the IC50?
**A.** Its IC50 is 214 µM.

**Q.** How did the outcome turn out when `CCN(CC)CC.CCOc1ccc(NC(=O)N=C=[N-])cc1.[CH-]1CCCCC1.[CH-]1CCCCC1.[CH-]1CCCCC1.[Cl-].[Sn+4]` was run?
**A.** The outcome was “inactive”.

**Q.** For `CCOC(=O)CNc1nnnn1C1OC(CO)C(O)C1O` (stereo not drawn), which EC50 is on record?
**A.** The EC50 was > 832 µM.

**Q.** And the IC50?
**A.** The IC50 was > 832 µM.

**Q.** What does the source list for `CCOC(=O)c1ccc(NCc2ccc3oc(=O)c(-c4ccccc4)nc3c2)cc1`?
**A.** EC50: > 135 µM; IC50: 38.9 µM

**Q.** Which results are given for `Cc1nc(C)c(C(=O)NNC(N)=S)cc1C(=O)NNC(N)=S`?
**A.** EC50: > 200 µM; IC50: > 200 µM

**Q.** Which results are given for `CC[As](CC)SCC1OC(OC(C)=O)C(OC(C)=O)C(OC(C)=O)C1OC(C)=O` (stereo not drawn)?
**A.** EC50: > 191 µM; IC50: 4.57 µM

**Q.** How did the EC50 turn out when `CC1CCC2c3c([nH]c4ccccc34)C3C(=O)N(C4CCCCC4)C(=O)C3C2C1` (stereo not drawn) was run?
**A.** Its EC50 is > 200 µM.

**Q.** What about the IC50 of the same compound?
**A.** The IC50 was 9.33 µM.

**Q.** How did the EC50 turn out when `NC(=O)c1ncn(C2OC(CO)C(F)C2O)c1N` (stereo not drawn) was run?
**A.** Its EC50 is > 200 µM.

**Q.** And the IC50?
**A.** The IC50 was > 200 µM.
